Experimental data reported in patent US20240158446A1, “CYCLIC COMPOUND HAVING SELECTIVE INHIBITORY ACTION ON KRAS OVER HRAS AND NRAS” (CHUGAI SEIYAKU KABUSHIKI KAISHA, priority 2021, published 2024).
Where two headings read alike, the source gives them in different places. *1 amine or outer side, *2 acyl side, *3 side chain or, on linkers, in order; H or OH if unused. Where a SMILES comes first, the peptide text is derived from it. Bridges are numbered along the chain shown (N, C = ends). [ ]: non-standard residue; d: D form. The star is where a group is joined. hPhe(3,5-F2-4-CF3) = N[C@@H](CCc1cc(F)c(C(F)(F)F)c(F)c1)C(=O)O; hPhe(3-Cl-4-CF3) = N[C@@H](CCc1ccc(C(F)(F)F)c(Cl)c1)C(=O)O; X49 = CCCN([C@@H](Cc1ccc(OCC=[*:3])cc1)C(=O)[*:2])[*:1]; X34 = Cc1ccc(C[C@@H](C(=O)[*:2])N(CCC(C)(C)C)[*:1])cc1; NPrPhe(4-CF3) = CCCN[C@@H](Cc1ccc(C(F)(F)F)cc1)C(=O)O; X48 = CN([C@@H](CCC=[*:3])C(=O)[*:2])[*:1]; NMeGly(cPent) = CN[C@H](C(=O)O)C1CCCC1; Pro(4,4-F2) = O=C(O)[C@@H]1CC(F)(F)CN1; Nva(3-Et) = CCC(CC)[C@H](N)C(=O)O; Hyp = O=C(O)[C@@H]1C[C@@H](O)CN1; NMeD = CN[C@@H](CC(=O)O)C(=O)O; NMeL = CN[C@@H](CC(C)C)C(=O)O; Morpholide = C1CN(*)CCO1; NMeA = CN[C@@H](C)C(=O)O; Ac5c = NC1(C(=O)O)CCCC1; Aze = O=C(O)[C@@H]1CCN1; Ac4c = NC1(C(=O)O)CCC1; Sar = CNCC(=O)O

Key:
[1] = molecular target: GDP-bound HRAS wild-type protein (Homo sapiens, UniProt P01112); assay: Binding to HRAS by surface plasmon resonance (SPR), Single Cycle Kinetics; details: SPR; for HRAS/KRAS (ratio of KD value with respect to HRAS to KD value with respect to KRAS) / HRAS/KRAS (ratio of KD value for HRAS to KD value for KRAS): GDP-bound HRAS wild-type protein vs GDP-bound KRAS wild-type protein
Sequence of GDP-bound HRAS wild-type protein (P01112 whole entry): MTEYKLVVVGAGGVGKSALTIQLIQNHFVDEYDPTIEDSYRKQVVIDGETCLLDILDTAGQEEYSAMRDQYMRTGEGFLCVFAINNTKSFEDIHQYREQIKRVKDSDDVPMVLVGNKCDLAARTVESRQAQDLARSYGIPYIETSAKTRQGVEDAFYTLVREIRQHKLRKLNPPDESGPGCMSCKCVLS

[2] = molecular target: GDP-bound NRAS wild-type protein (Homo sapiens, UniProt P01111); assay: Binding to NRAS by surface plasmon resonance (SPR), Single Cycle Kinetics; details: SPR; for NRAS/KRAS (ratio of KD value with respect to NRAS to KD value with respect to KRAS) / NRAS/KRAS (ratio of KD value for NRAS to KD value for KRAS): GDP-bound NRAS wild-type protein vs GDP-bound KRAS wild-type protein
Sequence of GDP-bound NRAS wild-type protein (P01111 whole entry): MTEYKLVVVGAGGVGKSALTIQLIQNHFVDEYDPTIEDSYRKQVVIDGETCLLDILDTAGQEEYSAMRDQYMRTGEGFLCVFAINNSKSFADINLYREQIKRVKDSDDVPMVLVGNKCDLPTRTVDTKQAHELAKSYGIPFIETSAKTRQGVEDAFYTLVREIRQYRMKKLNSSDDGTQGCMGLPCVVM

[3] = test system: human lung cancer strain NCI-H441;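 further: cell proliferation inhibition after four days measured by CellTiter-Glo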

| IC50 [3] | SMILES | HRAS/KRAS (ratio of KD value with respect to HRAS to KD value with respect to KRAS) [1] | NRAS/KRAS (ratio of KD value with respect to NRAS to KD value with respect to KRAS) [2] | HRAS/KRAS (ratio of KD value for HRAS to KD value for KRAS) [1] | NRAS/KRAS (ratio of KD value for NRAS to KD value for KRAS) [2] | further results |
| --- | --- | --- | --- | --- | --- | --- |
| 88.9 nM | CC[C@H](C)[C@@H]1NC(=O)[C@H](CC(C)C)N(C)C(=O)C[C@@H](C(=O)N2CCOCC2)N(C)C(=O)[C@H](C2CCCC2)N(C)C(=O)C2(CCCC2)NC(=O)[C@@H]2CCCN2C(=O)[C@H](CCc2ccc(C(F)(F)F)c(Cl)c2)NC(=O)CN(C)C(=O)[C@H](Cc2ccccc2)N2CCCCC[C@@H](C2=O)N(C)C(=O)CN(C)C1=O [PP0611] | B (a compound having 3 or more and less than 10 is denoted as B) | B (a compound having 3 or more and less than 10 is denoted as B) |  |  |  |
|  | CCO[C@@H]1C[C@H]2C(=O)NC3(CCC3)C(=O)N(C)[C@@H](C3CCCC3)C(=O)N(C)[C@H](C(=O)N(CC)CC)CC(=O)N(C)[C@@H](CC(C)C)C(=O)N[C@@H]([C@@H](C)CC)C(=O)N(C)CC(=O)N(C)[C@H]3C/C=C\CCN(C3=O)[C@@H](Cc3ccc(C)cc3)C(=O)N(C)CC(=O)N[C@@H](CCc3ccc(C(F)(F)F)c(OC)c3)C(=O)N2C1 [PP1851] |  |  |  |  | HRAS/KRAS (KD ratio) ([1]; ratio of KD for GDP-bound HRAS wild-type protein to KD for KRAS): A (a compound having 10 or more and less than 20 is denoted as A); NRAS/KRAS (KD ratio) ([2]; ratio of KD for GDP-bound NRAS wild-type protein to KD for KRAS): A (a compound having 10 or more and less than 20 is denoted as A); IC50 ([3]; read-out: NCI-H441 IC50, NCI-H441 cell proliferation, 4 days, CellTiter-Glo): 165 nM |
|  | CCC(CC)[C@H]1C(=O)N(C)[C@H](C(=O)N2CCCCC2)CC(=O)N(C)[C@H]2CCC/C=C/c3ccc(cc3)C[C@@H](C(=O)N(C)CC(=O)N[C@@H](CCc3ccc(Cl)c(Cl)c3)C(=O)N3CCC[C@H]3C(=O)NC3(CC(C)(C)C3)C(=O)N1C)N1CC/C=C\C[C@@H](C1=O)N(C)C(=O)CN(C)C(=O)[C@H]([C@@H](C)CC)NC2=O [PP3055] |  |  | A (a compound having 10 or more and less than 20 is denoted as A) | AA (a compound having 20 or more is denoted as AA) | IC50 ([3]; read-out: NCI-H441 IC50, NCI-H441 cells, four days, CellTiter-Glo): 69.2 nM |
| 19.1 nM | CCC[C@H]1C(=O)N[C@@H](C2CCCCC2)C(=O)N(C)CC(=O)N(C)[C@H]2C/C=C\CCN(C2=O)[C@@H](Cc2ccc(C)cc2)C(=O)N(C)CC(=O)N[C@@H](CCc2ccc(C(F)(F)F)c(Cl)c2)C(=O)N2C[C@H](OCC)C[C@H]2C(=O)NC2(CC(C)(C)C2)C(=O)N(C)[C@@H](CC(C)(C)C)C(=O)N(C)[C@H](C(=O)N(C)C)CC(=O)N1C [PP3018] |  |  | B (a compound having 3 or more and less than 10 is denoted as B) | A (a compound having 10 or more and less than 20 is denoted as A) |  |
| 83.9 nM | CC[C@H](C)[C@@H]1NC(=O)[C@H](Cc2cccc(F)c2)N(C)C(=O)C[C@@H](C(=O)N2CCOCC2)N(C)C(=O)[C@H](C2CCCC2)N(C)C(=O)C2(CCCC2)NC(=O)[C@@H]2CCCN2C(=O)[C@H](CCc2ccc(C(F)(F)F)c(Cl)c2)NC(=O)CN(C)C(=O)[C@H](Cc2ccc(F)cc2)N2CCCCC[C@@H](C2=O)N(C)C(=O)CN(C)C1=O [PP0962] |  |  | B (a compound having 3 or more and less than 10 is denoted as B) | B (a compound having 3 or more and less than 10 is denoted as B) |  |
| 10.7 nM | CCCN1C(=O)CN(C)C(=O)[C@@H]2CCN2C(=O)[C@H]([C@@H](C)CC)NC(=O)[C@H](CC(C)C)N(C)C(=O)C[C@@H](C(=O)N(C)C)N(C)C(=O)[C@H](C2CCCC2)N(C)C(=O)C2(CCC2)NC(=O)[C@@H]2CC(F)(F)CN2C(=O)[C@H](CCc2ccc(C(F)(F)F)c(Cl)c2)NC(=O)CN(C)C(=O)[C@@H]1Cc1ccc(C(F)(F)F)cc1 [PP0432] ([NMeL]I[Aze][Sar][NPrPhe(4-CF3)][Sar][hPhe(3-Cl-4-CF3)][Pro(4,4-F2)][Ac4c][NMeGly(cPent)][NMeD]-NMe2; lactam N-11) | B (a compound having 3 or more and less than 10 is denoted as B) | B (a compound having 3 or more and less than 10 is denoted as B) |  |  |  |
| 7 nM | CC[C@H](C)[C@@H]1NC(=O)[C@H](CC(C)C)N(C)C(=O)C[C@@H](C(=O)N2CCOCC2)N(C)C(=O)[C@H](C2CCCC2)N(C)C(=O)C2(CCCC2)NC(=O)[C@@H]2CCCN2C(=O)[C@H](CCc2ccc(C(F)(F)F)c(Cl)c2)NC(=O)CN(C)C(=O)[C@H](Cc2ccc(F)cc2)N2CCCC[C@@H](C2=O)N(C)C(=O)CN(C)C1=O [PP0530] | B (a compound having 3 or more and less than 10 is denoted as B) | C (A compound having a KD ratio of 0.1 or more and less than 3 is denoted as C) |  |  |  |
| 6.5 nM | CC[C@H](C)[C@@H]1NC(=O)[C@H](CC(C)C)N(C)C(=O)C[C@@H](C(=O)N2CCOCC2)N(C)C(=O)[C@H](C2CCCC2)N(C)C(=O)C2(CCCC2)NC(=O)[C@@H]2CCCN2C(=O)[C@H](CCc2ccc(C(F)(F)F)c(Cl)c2)NC(=O)CN(C)C(=O)[C@H](Cc2ccccc2)N2CCCC[C@@H](C2=O)N(C)C(=O)CN(C)C1=O [PP0529] | B (a compound having 3 or more and less than 10 is denoted as B) | C (A compound having a KD ratio of 0.1 or more and less than 3 is denoted as C) |  |  |  |
| 177 nM | CCCN1C(=O)CN(C)C(=O)[C@@H]2CCN2C(=O)[C@H]([C@@H](C)CC)NC(=O)[C@H](CC(C)C)N(C)C(=O)C[C@@H](C(=O)N2CCOCC2)NC(=O)[C@H](C2CCCC2)N(C)C(=O)C2(CCC2)NC(=O)[C@@H]2CC(F)(F)CN2C(=O)[C@H](CCc2ccc(C(F)(F)F)c(Cl)c2)NC(=O)CN(C)C(=O)[C@@H]1Cc1ccc(C(F)(F)F)cc1 [PP0340] ([NMeL]I[Aze][Sar][NPrPhe(4-CF3)][Sar][hPhe(3-Cl-4-CF3)][Pro(4,4-F2)][Ac4c][NMeGly(cPent)]D-Morpholide; lactam N-11) |  |  | B (a compound having 3 or more and less than 10 is denoted as B) | B (a compound having 3 or more and less than 10 is denoted as B) |  |
| 324 nM | CCCN1C(=O)CN(C)C(=O)[C@@H]2CCN2C(=O)[C@H](C(CC)CC)NC(=O)[C@H](CC(C)C)N(C)C(=O)C[C@@H](C(=O)N2CCOCC2)N(C)C(=O)[C@H](C2CCCC2)N(C)C(=O)C2(CCCC2)NC(=O)[C@@H]2CCCN2C(=O)[C@H](CCc2cc(F)c(C(F)(F)F)c(F)c2)NC(=O)CN(C)C(=O)[C@@H]1Cc1ccc(C(F)(F)F)cc1 [PP0785] ([NMeL][Nva(3-Et)][Aze][Sar][NPrPhe(4-CF3)][Sar][hPhe(3,5-F2-4-CF3)]P[Ac5c][NMeGly(cPent)][NMeD]-Morpholide; lactam N-11) | B (a compound having 3 or more and less than 10 is denoted as B) | B (a compound having 3 or more and less than 10 is denoted as B) |  |  |  |
| 205 nM | CCCN1C(=O)CN(C)C(=O)[C@@H]2CCN2C(=O)[C@H]([C@@H](C)CC)NC(=O)[C@H](CC(C)C)N(C)C(=O)C[C@@H](C(=O)N2CCOCC2)N(C)C(=O)[C@H](C2CCCC2)N(C)C(=O)C2(CCCC2)NC(=O)[C@@H]2CCN2C(=O)[C@H](CCc2ccc(C(F)(F)F)c(Cl)c2)NC(=O)CN(C)C(=O)[C@@H]1Cc1ccc(C(F)(F)F)cc1 [PP0307] ([NMeL]I[Aze][Sar][NPrPhe(4-CF3)][Sar][hPhe(3-Cl-4-CF3)][Aze][Ac5c][NMeGly(cPent)][NMeD]-Morpholide; lactam N-11) |  |  | B (a compound having 3 or more and less than 10 is denoted as B) | B (a compound having 3 or more and less than 10 is denoted as B) |  |
| 24 nM | CC[C@H](C)[C@@H]1NC(=O)[C@H](CC(C)C)N(C)C(=O)C[C@@H](C(=O)N2CCOCC2)N(C)C(=O)[C@H](C2CCCC2)N(C)C(=O)C2(CCCC2)NC(=O)[C@@H]2CCCN2C(=O)[C@H](CCc2ccc(C(F)(F)F)c(Cl)c2)NC(=O)CN(C)C(=O)[C@H](Cc2ccc(C)cc2)N(CCC(C)(C)C)C(=O)[C@@H]2CCN2C(=O)[C@H](C)N(C)C1=O [PP0087] ([NMeL]I[NMeA][Aze][X34][Sar][hPhe(3-Cl-4-CF3)]P[Ac5c][NMeGly(cPent)][NMeD]-Morpholide; lactam N-11) |  |  | C (A compound having a KD ratio of 0.1 or more and less than 3 is denoted as C) | C (A compound having a KD ratio of 0.1 or more and less than 3 is denoted as C) |  |
| 4.9 nM | CCCN1C(=O)CN(C)C(=O)CN(C)C(=O)[C@H]([C@@H](C)CC)NC(=O)[C@@H]2CCC=CCOc3ccc(cc3)C[C@H]1C(=O)N(C)CC(=O)N[C@@H](CCc1cc(F)c(C(F)(F)F)c(F)c1)C(=O)N1C[C@H](OCC)C[C@H]1C(=O)NC1(CCCC1)C(=O)N(C)[C@@H](C1CCCC1)C(=O)N(C)[C@H](C(=O)N(C)C)CC(=O)N2C [PP0900] ([X48]I[Sar][Sar][X49][Sar][hPhe(3,5-F2-4-CF3)][Hyp](Et)[Ac5c][NMeGly(cPent)][NMeD]-NMe2; staple 1-5; lactam N-11) |  |  | C (A compound having a KD ratio of 0.1 or more and less than 3 is denoted as C) | C (A compound having a KD ratio of 0.1 or more and less than 3 is denoted as C) |  |
| 18.7 nM | CCCOC[C@H]1C(=O)N[C@@H]([C@@H](C)CC)C(=O)N(C)CC(=O)N(C)[C@H]2C/C=C\CCN(C2=O)[C@@H](Cc2ccc(C)cc2)C(=O)N(C)CC(=O)N[C@@H](CCc2cc(F)c(C(F)(F)F)c(F)c2)C(=O)N2C[C@H](CCC)C[C@H]2C(=O)NC2(CCC2)C(=O)N(C)[C@@H](C2CCCC2)C(=O)N(C)[C@H](C(=O)N(C)C)CC(=O)N1C [PP2232] |  |  | A (a compound having 10 or more and less than 20 is denoted as A) | A (a compound having 10 or more and less than 20 is denoted as A) |  |
